Source: patent publication US20250205194A1, “COMPOSITION CONTAINING L-ASCORBIC ACID DL-a-TOCOPHEROL PHOSPHORIC ACID DIESTER ALKALI METAL SALT” (SUNSTAR INC., priority 2022, published 2025)

What follows are molecules tested against T1, MMP-8 (neutrophil collagenase) (Homo sapiens, UniProt P22894) (assay: MMP activity measurement test, MMP-8 fluorimetric drug discovery kit). Conditions: reaction with enzyme 37° C. 60 minutes, substrate 20 minutes; FIG. 4.
T1 construct: purchased Enzo Life Sciences, Inc. BML-AK415-0001
Assay type: biochemical
Procedure: (§1) Evaluation material solutions were prepared by individually adding each evaluation material at the respective concentrations shown in FIGS. 4 and 5 to a solvent in which 5% DMSO was added to the buffer included in each kit below. The evaluation materials used are EPC-K (L-ascorbic acid dl-α-tocopherol phosphoric acid diester potassium salt), VC (ascorbic acid), VEA (tocopherol acetate), and VEN (tocopherol nicotinate).
(§2) MMP-8 (neutrophil collagenase) activity was evaluated using an MMP-8 fluorimetric drug discovery kit (Enzo Life Sciences, Inc., BML-AK415-0001), and MMP-1 (fibroblast collagenase) activity was evaluated using an MMP-1 fluorimetric drug discovery kit (Enzo Life Sciences, Inc., BML-AK405-0001), in the following manner. […]
(§3) The fluorescent substrate included in each kit was diluted 10-fold using the buffer, and added in an amount of 10 μl to each solution after the reaction for 60 minutes. After the addition, a reaction was allowed to proceed at 37° C. for 20 minutes for MMP-8 or at 37° C. for 60 minutes for MMP-1, and the fluorescence intensity (excitation light: 328 nm; emission light: 420 nm) was measured. […] The concentration of each evaluation material in FIGS. 4 and 5 is the concentration at the time of preparing the evaluation material, and the final concentration (concentration at the time of measuring fluorescence intensity) is 1/5 of this concentration value.

T1 sequence (P22894 100-262 limits assumed): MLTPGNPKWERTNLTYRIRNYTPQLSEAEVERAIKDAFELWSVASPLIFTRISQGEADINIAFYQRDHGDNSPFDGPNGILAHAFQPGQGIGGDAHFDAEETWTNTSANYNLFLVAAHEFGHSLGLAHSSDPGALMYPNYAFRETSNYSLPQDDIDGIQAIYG

| Molecule | inhibition of MMP-8 activity |
| --- | --- |
| Cc1c(C)c2c(c(C)c1OP(=O)([O-])OC1=C(O)C(C(O)CO)OC1=O)CCC(C)(CCCC(C)CCCC(C)CCCC(C)C)O2.[K+] (racemic) [EPC-K, L-ascorbic acid dl-α-tocopherol phosphoric acid diester potassium salt] | inhibited MMP activity (MMP-8 and MMP-1) in a concentration-dependent manner |

The molecules below were run against T2, MMP-1 (fibroblast collagenase) (Homo sapiens, UniProt P03956) (assay: MMP activity measurement test, MMP-1 fluorimetric drug discovery kit). Conditions: reaction with enzyme 37° C. 60 minutes, substrate 60 minutes; FIG. 5.
T2 construct: purchased Enzo Life Sciences, Inc. BML-AK405-0001
T2 sequence (P03956 100-269 limits assumed): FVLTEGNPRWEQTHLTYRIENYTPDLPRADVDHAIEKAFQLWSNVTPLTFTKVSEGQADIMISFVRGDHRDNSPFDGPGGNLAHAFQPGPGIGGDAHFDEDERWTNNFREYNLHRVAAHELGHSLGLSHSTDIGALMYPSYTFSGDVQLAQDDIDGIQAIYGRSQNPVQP
Assay type: biochemical
Procedure: as §1, §2, §3

| Molecule | inhibition of MMP-1 activity |
| --- | --- |
| Cc1c(C)c2c(c(C)c1OP(=O)([O-])OC1=C(O)C(C(O)CO)OC1=O)CCC(C)(CCCC(C)CCCC(C)CCCC(C)C)O2.[K+] (racemic) [EPC-K, L-ascorbic acid dl-α-tocopherol phosphoric acid diester potassium salt] | inhibited MMP activity (MMP-8 and MMP-1) in a concentration-dependent manner |

The molecules below were run on oral cavity-derived epithelial cell line (Ca9-22 cells) (assay: Cytotoxicity evaluation test (WST-1)). Conditions: surfactant final concentration 1%, 10 minutes at room temperature, FIGS. 6 and 7.
Assay type: cell-based
Procedure: An oral cavity-derived epithelial cell line (Ca9-22 cells) was cultured in a 96-well plate to confluency.
Evaluation solutions were prepared using PBS containing 0.5% DMSO as a solvent so that the final concentration of each surfactant was 1%. The surfactants used were polyoxyethylene (9) lauryl ether, polyoxyethylene (20) cetyl ether, polyoxyethylene (20) stearyl ether, polyoxyethylene (10) octylphenyl ether, polyoxyethylene glycol monolaurate, sorbeth-60 tetraoleate, diethyl sebacate, and polyoxyethylene (10) hydrogenated castor oil.
100 μl of each prepared evaluation solution was individually added to the cultured Ca9-22 cells and allowed to stand for 10 minutes at room temperature. After 10 minutes, washing was performed three times with 200 μl of PBS, a WST-1 reagent (Takara Bio Inc.) was added, and a reaction was allowed to proceed for 30 minutes. After the reaction, the absorbance at 450 nm and 600 nm was measured, and the absorbance at 600 nm was subtracted from the absorbance at 450 nm. The cell viability was calculated from the value calculated by the subtraction, based on the value obtained when only the solvent was added for the treatment taken as 100%. FIGS. 6 and 7 show the results.

| Molecule | cytotoxicity in oral cavity-derived cells (cell viability) |
| --- | --- |
| polyoxyethylene glycol monolaurate | cytotoxicity was caused |
| CCOC(=O)CCCCCCCCC(=O)OCC [diethyl sebacate] | cytotoxicity was not caused |
| polyoxyethylene (10) hydrogenated castor oil | cytotoxicity was not caused |
| polyoxyethylene (9) lauryl ether | cytotoxicity was caused |
| polyoxyethylene (20) cetyl ether | cytotoxicity was caused |
| polyoxyethylene (20) stearyl ether | cytotoxicity was caused |
| polyoxyethylene (10) octylphenyl ether | cytotoxicity was caused |
| sorbeth-60 tetraoleate | cytotoxicity was not caused |
